# Columns and labels:
# ob/ob (Lep^ob) mouse [1] = assay: Oral glucose tolerance test (OGTT) in ob/ob mouse; type: in vivo; details: ob/ob mice; for change in vivo: Mus musculus, 336 h, 5 or 10 mg/kg ip every 3 days, 4 doses, OGTT study day 14, 1.5 g/kg oral glucose, 0-120 min, read-out: AbAUC % Change From Saline; for reduction in AbAUC compared to saline control (significance): OGTT study day 14, p<0.05
# Procedure: (§1) To determine in vivo efficacy of the aminosteroid analogues an ob/ob (Lep^ob) mouse model was used. Ob/ob mice are extensively used for screening of antidiabetic and/or anti-obesity agents. Ob/ob mice were treated with either saline or 5 or 10 mg/kg aminosteroid analogue every 3 days for a total of 4 doses via ip injection. Body weight, glucose tolerance and fasting blood glucose levels were measured for each group during the study. Each group had at least an N of 4 animals. All reagents and lab animals are commercially available.
# On study day 14, an oral glucose tolerance test (OGTT) was performed to assess glucose tolerance. At time 0, an oral glucose challenge (1.5 g/kg) was administered by oral gavage. At time points 0, 15, 30, 60, 90, and 120 min post glucose load, 25 μl of whole blood was withdrawn from the tail vein of the animal and the glucose level was measured using a glucose analyzer. The glucose concentration vs time was plotted and the above baseline area under the curve (AbAUC) of the glucose excursion time curve was determined using trapezoidal rule analyses.
# [2] = target: T1, full length tyrosine phosphatase PTP1B (Homo sapiens, UniProt P18031); assay: Inhibition of PTP1B (pNPP hydrolysis, absorbance at 405 nm); type: biochemical; details: 5 μM aminosteroid analogue; pNPP substrate; read-out: PTP1B % Inhib. at (5 μM)
# T1 construct: purchased
# T1 sequence (P18031 1-435): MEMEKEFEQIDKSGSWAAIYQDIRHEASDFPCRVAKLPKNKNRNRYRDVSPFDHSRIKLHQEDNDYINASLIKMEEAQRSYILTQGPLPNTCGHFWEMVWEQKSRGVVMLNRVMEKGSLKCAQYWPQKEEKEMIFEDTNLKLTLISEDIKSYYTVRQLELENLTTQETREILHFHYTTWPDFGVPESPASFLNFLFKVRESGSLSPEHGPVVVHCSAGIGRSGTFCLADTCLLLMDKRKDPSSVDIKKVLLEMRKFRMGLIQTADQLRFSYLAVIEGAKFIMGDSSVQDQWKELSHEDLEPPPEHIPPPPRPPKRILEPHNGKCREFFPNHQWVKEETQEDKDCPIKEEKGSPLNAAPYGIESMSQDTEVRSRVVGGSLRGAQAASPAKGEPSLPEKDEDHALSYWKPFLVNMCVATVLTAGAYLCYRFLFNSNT
# Procedure: (§2) The aminosteroid analogues were tested for inhibition against the commercially available full length tyrosine phosphatase PTP1B. The ability of each analogue to inhibit the activity of PTP1B was measured in the presence of 5 μM of the aminosteroid analogue. The assay uses para-nitro-phenyl phosphate (pNPP), a non-specific substrate to assess phosphatase activity. Phosphatase activity was based on the ability of PTP1B to catalyze the hydrolysis of pNPP to p-nitrophenol (pNP).
# ob/ob (Lep^ob) mouse [3] = assay: Fasting blood glucose (FBG) in ob/ob mouse; type: in vivo; details: ob/ob mice; 5 or 10 mg/kg ip every 3 days, 4 doses; study day 14 after overnight fast
# Procedure: as §1
# On study day 13, all animal groups were fasted overnight. On study day 14, 25 μL of whole blood was collected and analyzed for the glucose level (mg/dL) using a glucose analyzer.
# [4] = Body weight change in ob/ob mouse; type: in vivo; details: ob/ob mice; 5 or 10 mg/kg ip every 3 days, 4 doses; % change in body weight vs study day 0, up to 30 days
# Procedure: as §1
# Starting at study day 0, body weight measurements were taken every day for each group for up to 30 days. Percent change in body weight was calculated as the fractional response of body weight on study day X over the original body weight on study day 0.
# full length TCPTP = target: T2, full length TCPTP (Homo sapiens, UniProt P17706); assay: Inhibition of TCPTP (pNPP hydrolysis, same manner as PTP1B assay); type: biochemical; details: 200 μM inhibitor; pNPP substrate; read-out: TCPTP % Inhib. at (200 μM)
# T2 construct: except full length TCPTP was used as the enzyme
# T2 sequence (P17706 1-415): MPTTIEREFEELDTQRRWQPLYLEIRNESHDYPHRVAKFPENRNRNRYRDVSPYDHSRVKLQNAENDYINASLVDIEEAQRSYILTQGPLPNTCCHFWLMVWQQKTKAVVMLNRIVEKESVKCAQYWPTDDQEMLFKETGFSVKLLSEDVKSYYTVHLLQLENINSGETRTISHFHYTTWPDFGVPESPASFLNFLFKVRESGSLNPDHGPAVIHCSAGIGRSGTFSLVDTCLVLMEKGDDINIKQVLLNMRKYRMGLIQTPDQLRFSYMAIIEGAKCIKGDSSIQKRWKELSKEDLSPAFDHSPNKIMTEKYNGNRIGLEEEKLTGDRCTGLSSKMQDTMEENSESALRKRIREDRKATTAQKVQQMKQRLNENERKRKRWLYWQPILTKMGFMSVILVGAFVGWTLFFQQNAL
# Procedure: as §2
# The aminosteroid analogues were also tested for their ability to inhibit the tyrosine phosphatase TCPTP as an indication of their potential toxicity by the inhibition of the immune response. The TCPTP inhibition assay was done in the same manner as the PTP1B assay except full length TCPTP was used as the enzyme and the inhibitor was at a concentration of 200 μM. The results of the TCPTP inhibition assays are shown in Table 1, column 4 and show three compounds that inhibit TCPTP less than 50% even at a […] greater concentration.
smiles,measurement,setting,value
"CC(C)[C@@H](CC[C@@H](C)[C@H]1CC[C@H]2[C@@H]3[C@H](O)C[C@H]4C[C@@H](NCCCNCCCCNCCCN)CC[C@]4(C)[C@H]3CC[C@]12C)OS(=O)(=O)O [MSI-1436, reference compound]",change in vivo,ob/ob (Lep^ob) mouse [1],-55.9%
same,inhibition at 5 µM,[2],54%
same,FBG % Change From Saline,ob/ob (Lep^ob) mouse [3],−51.3%
same,% BW Nader,[4],−52.6%
CCNC(=O)N(CCCN(C)C)C(=O)C(C)[C@H]1CCC2C3CC[C@H]4CC(NCCNC)CC[C@]4(C)C3CC[C@@]21C (some centres unmarked) [MSI-2500],inhibition at 5 µM,[2],0%
CCN(C(=O)NCCCN(C)C)C(=O)C(C)[C@H]1CCC2C3CC[C@H]4CC(NCCNC)CC[C@]4(C)C3CC[C@@]21C (some centres unmarked) [MSI-2501],inhibition at 5 µM,[2],0%
CC(C)CCC[C@@H](C)[C@H]1CCC2C3C[C@@H](O)[C@H]4C[C@@H](NCCN)CC[C@]4(C)C3CC[C@@]21C (some centres unmarked) [MSI-2502],inhibition at 5 µM,[2],0%
CC(C)CCC[C@@H](C)[C@H]1CCC2C3C[C@@H](O)[C@H]4C[C@H](NCCCN)CC[C@]4(C)C3CC[C@@]21C (some centres unmarked) [MSI-2504],inhibition at 200 µM,full length TCPTP,22%
same,inhibition at 5 µM,[2],43%
CC(C)CCC[C@@H](C)[C@H]1CCC2C3C[C@@H](O)[C@H]4C[C@@H](NCCCN)CC[C@]4(C)C3CC[C@@]21C (some centres unmarked) [MSI-2505],inhibition at 5 µM,[2],39%
CC(C)CCC[C@@H](C)[C@H]1CCC2C3C[C@@H](O)[C@H]4C[C@H](NCCCNCCCCN)CC[C@]4(C)C3CC[C@@]21C (some centres unmarked) [MSI-2506],inhibition at 200 µM,full length TCPTP,60%
same,inhibition at 5 µM,[2],60%
COC(=O)CC[C@@H](C)[C@H]1CCC2C3C(CC[C@@]21C)[C@@]1(C)CC[C@@H](NCCN2CCCCC2)C[C@H]1C[C@H]3O (some centres unmarked) [MSI-2507],change in vivo,ob/ob (Lep^ob) mouse [1],-45.8%
same,reduction in AbAUC compared to saline control (significance),ob/ob (Lep^ob) mouse [1],significant reduction
same,inhibition at 200 µM,full length TCPTP,-11%
same,inhibition at 5 µM,[2],94%
same,FBG % Change From Saline,ob/ob (Lep^ob) mouse [3],−9.4%
same,% BW Nader,[4],1.4%
COC(=O)CC[C@@H](C)[C@H]1CCC2C3C(CC[C@@]21C)[C@@]1(C)CC[C@@H](NCCCCNCc2cccnc2)C[C@@H]1C[C@H]3O (some centres unmarked) [MSI-2510],change in vivo,ob/ob (Lep^ob) mouse [1],-32.9%
same,reduction in AbAUC compared to saline control (significance),ob/ob (Lep^ob) mouse [1],significant reduction
same,inhibition at 200 µM,full length TCPTP,23%
same,inhibition at 5 µM,[2],72%
same,FBG % Change From Saline,ob/ob (Lep^ob) mouse [3],12.0%
same,% BW Nader,[4],1.6%
COC(=O)CC[C@@H](C)[C@H]1CCC2C3C(CC[C@@]21C)[C@@]1(C)CC[C@H](NCCCCNCc2cccnc2)C[C@@H]1C[C@H]3O (some centres unmarked) [MSI-2511],change in vivo,ob/ob (Lep^ob) mouse [1],-34.6%
same,reduction in AbAUC compared to saline control (significance),ob/ob (Lep^ob) mouse [1],significant reduction
same,inhibition at 200 µM,full length TCPTP,0%
same,inhibition at 5 µM,[2],93%
same,FBG % Change From Saline,ob/ob (Lep^ob) mouse [3],5.1%
same,% BW Nader,[4],−0.9%
COC(=O)CC[C@@H](C)[C@H]1CCC2C3CC[C@@H]4C[C@H](NCc5ccccn5)CC[C@]4(C)C3C[C@H](O)[C@@]21C (some centres unmarked) [MSI-2512],change in vivo,ob/ob (Lep^ob) mouse [1],-5.8%
same,inhibition at 200 µM,full length TCPTP,-2%
same,inhibition at 5 µM,[2],90%
same,FBG % Change From Saline,ob/ob (Lep^ob) mouse [3],45.8%
same,% BW Nader,[4],0.4%
CC(C)NCCNC1CC[C@]2(C)C3CC[C@@]4(C)C(CC[C@@H]4[C@H](C)CCC(=O)O)C3C[C@@H](O)[C@H]2C1 (some centres unmarked) [MSI-2515],inhibition at 200 µM,full length TCPTP,19%
same,inhibition at 5 µM,[2],89%
CC(C)CCC[C@@H](C)[C@H]1CCC2C3C[C@@H](O)[C@H]4C[C@@H](NCCCNCCCCNCCCN)CC[C@]4(C)C3CC[C@@]21C (some centres unmarked) [MSI-2516],inhibition at 200 µM,full length TCPTP,25%
same,inhibition at 5 µM,[2],56%
CC(C)CCC[C@@H](C)[C@H]1CCC2C3C[C@@H](O)[C@H]4C[C@H](NCCCNCCCCNCCCN)CC[C@]4(C)C3CC[C@@]21C (some centres unmarked) [MSI-2517],inhibition at 200 µM,full length TCPTP,11%
same,inhibition at 5 µM,[2],51%
